Experimental data published in patent US8948863B2, “Photokinetic ocular drug delivery methods and apparatus” (priority 2009, dated 2015).
One block for each compound: values may come before it.

Legend:
[1] = Histological examination of Franz cell mounted sclera after PODD exposure; design: species or system ovine; conditions: MTX formulation, 60 minute exposure, 350 nm LED light
Experimental: (§1) Sclera samples were taken and placed in formalin as follows: Normal control sclera with no exposure to drug or light, Franz cell 60 minute control drug only exposure and Franz cell 60 minute exposure to both drug and 350 nm LED light. Fixed slides were evaluated for structural integrity and gross appearance by a pathologist blinded as to the origin of the sample tissue.
as §1, with “Normal” for “Sclera samples were taken and placed in formalin as follows: Normal”, “light were taken and placed in formalin.” for “light.”, “masked” for “blinded”

[2] = Franz cell sclera tissue permeation, PODD (pulsed LED light) vs passive controls; conditions: for levels of MTX recovered from Franz recipient cell: p<0.05 vs passive controls
Experimental: A traditional “up and down” vertical Franz cell skin perfusion apparatus as described above was adapted and used for this sclera tissue permeation model. […] Two wavelengths of light were selected of this facilitated permeation study. Samples of the Franz recipient solution were taken at 15, 30 and 60 minutes of photokinetic exposure and passive controls and analyzed by HPLC.
Franz cells (PermeGear, Inc, Bethlehem Pa.) having an 11.28 mm diameter permeation area, 1.0 cm^2 were used in the MTX experiment. A photokinetic ocular drug delivery (PODD)-modified Franz cell testing device was configured so that it accommodated the placement of LEDs within the donor chamber. The cells were placed within an aluminum block heater 35.5° C. on a magnetic stir bar setup (Custom manufactured by PermeGear, Inc, Bethlehem Pa.).
Discrete wavelength LEDs were purchased from Roithner Lasertechnick GmbH, Vienna, Austria as follows: 351 nm, #RTL350-30; 370 nm, #RLS-UV370. Peak emitting wavelengths are ±10 nm at the 50% radiance output. The LEDs were driven by a square wave pulse generator built by the investigators for this study. The adjustable square wave pulse generator provided pulsed electrical energy set at 24 cycles per second (CPS) with a 50% pulse duration (ON 50%, OFF 50% of the time). Driver current to the LEDs was limited to or slightly below the manufacturers specified drive current level to avoid exogenous heat generation. […] A donor cell contains the test drug (in this example, methotrexate (MTX)) in a solvent formulation. The recipient cell is filled with a balance salt solution. Samples for chemical analysis are taken from the side arm 27 of the Franz apparatus as discussed above. Control cells are set up the same, but without the LED. LEDs are driven by a square wave pulse generator (not shown) at a voltage slightly less than the manufacture's specified voltage.
Ovine eyes were procured by enucleation within one hour after euthanasia and placed in tissue culture medium with antibiotics and antimycotics and refrigerated at 4° C. Sclera tissue was dissected from the eyes and placed between the donor and recipient chambers of the Franz apparatus. Sclera was stored for a maximum of 30 hours in the tissue culture at 4° C. before the start of the experiment.
Methotrexate (MTX; (4-Amino-10-methylfolic acid hydrate); available from Sigma-Aldrich Corp., St. Louis, Mo.) was dissolved in a permeation enhancement carrier of water, 30% propylene glycol, 5% Ethyl Lactate, 0.1% Azone, and 0.75% hyaluronic acid as a gelling agent, with 0.1% neolone 850 as a preservative. An infinite donor sink model was used wherein 0.75 grams of the drug formulation (1.875 mg of each) was placed in the Franz donor cells. Hanks isotonic salt solution served as the Franz recipient cell fluid.
HPLC analysis was performed according to a method developed in our lab. Briefly, a Beckman Coulter system consisting of 125 pumps, 508 auto sampler and 168 diode array detector was used with an XTerra RP-C18, 150×40 mm, 3 μm column. The analytes were eluted with a gradient mobile phase from 25-30% Methanol in HPLC grade water with 0.1% Trifluoroacetic Acid (TFA) and flow rate of 0.7 ml/min. 32 Karat™ software (Beckman Coulter, Inc.) was used for acquisition of chromatograms.
The Franz recipient cell balanced salt solution was analyzed by the HPLC method for MTX concentration.

[3] = rabbit
Source text: Exogenous human insulin can be differentiated from the endogenous rabbit insulin; the human insulin FITC (fluorescein isothiocyanate) fluorescent tag further allows for tracking of the drug within the tissues.
In this series, rabbits were fitted with transscleral photokinetic device, such as shown in FIG. 1 of this disclosure, for one hour. […] Images were taken of the posterior optic disc, the area where the retina, optic nerve and blood vessels come together on the posterior segment of the eye.

[4] = Photokinetic transdermal permeation study; format: in vitro ADME, human; conditions: similar photokinetic conditions
Source text: Scleral tissue is more permeable than human skin. The practical upper molecular weight limit with the PODD system is unknown and may be determined by the specific molecular configuration rather than molecular weight per se.

- histological examination, PODD exposure compared to passive control and normal sclera [1]: no differences between the samples
- levels of MTX recovered from Franz recipient cell ([2]; PODD 350 nm group, 24 CPS, 30 and 60 minute time points): significant
- levels of MTX recovered from Franz recipient cell ([2]; PODD 370 nm group, 24 CPS, 15, 30 and 60 minute time points): significant
- total MTX flux (compared with the therapeutic level) ([2]; PODD, up to 60 minutes, 1.0 cm^2 ovine sclera): < 400 µg
- flux rate, 370 nm group compared to the 350 nm group ([2]; all time points (15, 30, 60 minutes), 24 CPS): much higher flux rate
- MTX permeation through the scleral tissue, PODD cells ([2]; both wavelengths of light tested (350 nm and 370 nm), 24 CPS, vs passive controls): improvement
Compound: CN(Cc1cnc2nc(N)nc(N)c2n1)c1ccc(C(=O)N[C@@H](CCC(=O)O)C(=O)O)cc1 [MTX, 4-Amino-10-methylfolic acid hydrate]
- structural integrity of the sclera [1]: grossly intact and undamaged

Compound: FITC-labeled human insulin: human insulin modified at the N-terminus of the B-chain with an FITC conjugate/tag, 5733 Daltons, Invitrogen
- fluorescence in the optic disc, passive permeation [3]: did not show fluorescence
- fluorescence image of the optic disc after 1 hour of PODD ([3]; in vivo): reached the posterior segment of the rabbit's eye
- fluorescence, contralateral eye ([3]; in vivo): no fluorescence

- flux rates through intact human skin [4]: significant flux rates
Compound: hyaluronic acid
